Measurements as given in patent USRE47689E1, “Compounds for treating spinal muscular atrophy” (PTC Therapeutics, Inc., priority 2011, dated 2019).
Where two headings read alike, the source gives them in different places.

Legend:
[1] = system: SMN2 minigene (full length SMN2 minigene mRNA containing SMN2 exon 7); test: SMN2 minigene mRNA splicing RT-qPCR assay in cultured cells; type: cell-based, human; conditions: Homo sapiens, HEK293-H, read-out: EC1.5x for production of full length SMN2 mRNA
Procedure, shortened: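 Full-length SMN2 minigene mRNA (exon 7 included), minigene-specific and not endogenous SMN, quantified by RT-qPCR multiplexed with GAPDH in stably transfected HEK293H cells after 24 h compound exposure at 37° C. Abundance from efficiency-corrected Ct, normalized to GAPDH and vehicle; EC1.5x reported as star bins.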

Smn protein = Smn protein assay in cultured cells (SMN HTRF); type: cell-based, human; conditions: for EC1.5x (concentration giving 1.5-fold Smn protein increase): SMA Type 1 patient fibroblast cells (GM03813), 7-point concentration curve, SMN HTRF, concentration producing 1.5 times Smn protein vs DMSO vehicle control, read-out: EC1.5x for Smn protein expression
Procedure, shortened: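 Smn in SMA fibroblast lysates, measured by anti-SMN HTRF after 48 h compound exposure; EC1.5x from fold change over vehicle.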

[2] = HEK293H cells stably transfected with SMN2-A minigene, 24 hours, 7-point concentration curve, 1.5-fold relative to vehicle-treated cells
[3] = SMA patient fibroblast cells, 48 hours, 7-point concentration data, fold increase relative to vehicle control (SMN HTRF)

Compound	melting point [°C]	EC (1.5-fold) [1, 2] [µM]	maximum fold (Fold) increase of Smn protein (Smn protein; [3])	EC1.5x (concentration giving 1.5-fold Smn protein increase) (Smn protein; 48 hours) [nM]	EC (1.5-fold) ([1]; 24 h) [µM]	maximum fold (Fold) increase of Smn protein (Smn protein)
Cc1ccc2nc(-c3cc4ccc(N5C[C@@H]6C[C@H]5CN6)cc4oc3=O)cn2c1 [Compound 173, 7-[(1S,4S)-2,5-diazabicyclo[2.2.1]hept-2-yl]-3-(6-methylimidazo[1,2-a]pyridin-2-yl)-2H-chromen-2-one]	212 to 215	0.3 to 1	** (fold increase between >1.2 and ≤1.35)			
Cc1ccc2oc(-c3cc4ccc(N5C[C@@H](C)N[C@@H](C)C5)cc4oc3=O)cc2n1 [Compound 720, 7-[(3R,5S)-3,5-dimethylpiperazin-1-yl]-3-(5-methylfuro[3,2-b]pyridin-2-yl)-2H-chromen-2-one]	179 to 183	0.3 to 1	** (fold increase between >1.2 and ≤1.35)			
Cc1cn2cc(-c3cc4ccc(N5C[C@H]6CN(C)C[C@H]6C5)cc4oc3=O)nc2c(C)n1 [Compound 688, 3-(6,8-dimethylimidazo[1,2-a]pyrazin-2-yl)-7-[(3aR,6aS)-5-methylhexahydropyrrolo[3,4-c]pyrrol-2(1H)-yl]-2H-chromen-2-one]	256 to 264	< 0.1	***** (fold increase >1.65)	< 300		
CCN1CCC(c2ccc3cc(-c4ccc5nc(C)cn5c4)c(=O)oc3c2)CC1 [Compound 827, 7-(1-ethylpiperidin-4-yl)-3-(2-methylimidazo[1,2-a]pyridin-6-yl)-2H-chromen-2-one]	268 to 270	< 0.1	***** (fold increase >1.65)	< 300		
Cc1cn2cc(-c3cc4ccc(N5C[C@@H](C)N[C@@H](C)C5)cc4oc3=O)nc2s1 [Compound 152, 7-[(3R,5S)-3,5-dimethylpiperazin-1-yl]-3-(2-methylimidazo[2,1-b][1,3]thiazol-6-yl)-2H-chromen-2-one]	210 to 212	< 0.1	*** (fold increase between >1.35 and ≤1.5)	1000 to 3000		
Cc1ccn2cc(-c3cc4c(F)cc(N5CCNCC5)cc4oc3=O)nc2c1 [Compound 424, 5-fluoro-3-(7-methylimidazo[1,2-a]pyridin-2-yl)-7-(piperazin-1-yl)-2H-chromen-2-one]	268 to 278	0.1 to 0.3	*** (fold increase between >1.35 and ≤1.5)	< 300		
Cc1cn2cc(-c3cc4ccc(C5CCN(C6CCC6)CC5)cc4oc3=O)nc2cn1 [Compound 869, 7-(1-cyclobutylpiperidin-4-yl)-3-(6-methylimidazo[1,2-a]pyrazin-2-yl)-2H-chromen-2-one]	256 to 268	< 0.1	***** (fold increase >1.65)	< 300		
CCc1cn2cc(-c3cc4ccc(N5C[C@@H](C)N[C@@H](C)C5)cc4oc3=O)nc2s1 [Cpd 429, 7-[(3R,5S)-3,5-dimethylpiperazin-1-yl]-3-(2-ethylimidazo[2,1-b][1,3]thiazol-6-yl)-2H-chromen-2-one]	251 to 253	0.3 to 1	* (maximum fold increase of ≤1.2)			
Cc1cn2cc(-c3cc4ccc(OCCN5CCCCC5)cc4oc3=O)nc2c(C)n1 [Compound 953, 3-(6,8-dimethylimidazo[1,2-a]pyrazin-2-yl)-7-[2-(piperidin-1-yl)ethoxy]-2H-chromen-2-one]	178 to 190	< 0.1	**** (fold increase between >1.5 and ≤1.65)	< 300		
O=c1oc2cc(N3CCCNCC3)cc(F)c2cc1-c1nc2c(F)cccc2o1 [Compound 368, 7-(1,4-diazepan-1-yl)-5-fluoro-3-(4-fluoro-1,3-benzoxazol-2-yl)-2H-chromen-2-one]	240 to 245	0.3 to 1	** (fold increase between >1.2 and ≤1.35)			
Cc1ccc2cc(-c3cc4ccc(N5CCNCC5)cc4oc3=O)cn2n1 [Cpd 641, 3-(2-methylpyrrolo[1,2-b]pyridazin-6-yl)-7-(piperazin-1-yl)-2H-chromen-2-one]	213 to 216				0.3 to 1	* (key: *: maximum fold increase of ≤1.2; **: fold increase between >1.2 and ≤1.35; ***: fold increase between >1.35 and ≤1.5; ****: fold increase between >1.5 and ≤1.65; *****: fold increase >1.65)
C[C@@H]1CN(c2ccc3cc(-c4cccs4)c(=O)oc3c2)C[C@H](C)N1 [Compound 364, 7-[(3R,5S)-3,5-dimethylpiperazin-1-yl]-3-(thiophen-2-yl)-2H-chromen-2-one]	150 to 152		* (maximum fold increase of ≤1.2)		1 to 3	
Cc1cn2cc(-c3cc4ccc(N5C[C@H]6CN(CCO)C[C@H]6C5)cc4oc3=O)nc2c(C)n1 [Compound 741, 3-(6,8-dimethylimidazo[1,2-a]pyrazin-2-yl)-7-[(3aR,6aS)-5-(2-hydroxyethyl)hexahydropyrrolo[3,4-c]pyrrol-2(1H)-yl]-2H-chromen-2-one]	258 to 268	< 0.1	***** (fold increase >1.65)	< 300		
CCN1CCN(c2cc(F)c3cc(-c4cn5cc(C)nc(C)c5n4)c(=O)oc3c2)CC1 [Compound 746, 3-(6,8-dimethylimidazo[1,2-a]pyrazin-2-yl)-7-(4-ethylpiperazin-1-yl)-5-fluoro-2H-chromen-2-one]	232 to 234	< 0.1	***** (fold increase >1.65)	< 300		
CN1CCN(c2ccc3cc(-c4ccsc4)c(=O)oc3c2)CC1 [Compound 320, 7-(4-methylpiperazin-1-yl)-3-(thiophen-3-yl)-2H-chromen-2-one]	151 to 153		* (maximum fold increase of ≤1.2)		1 to 3	

Second part, led by results:

melting point [°C]	Compound	EC (1.5-fold) [1, 2] [µM]	maximum fold (Fold) increase of Smn protein (Smn protein; [3])	EC1.5x (concentration giving 1.5-fold Smn protein increase) (Smn protein; 48 hours) [nM]	EC (1.5-fold) ([1]; 24 h) [µM]	maximum fold (Fold) increase of Smn protein (Smn protein)
276 to 286	Cc1cc(F)c2nc(-c3cc4ccc(N5CCNCC5)cc4oc3=O)cn2c1 [Compound 356, 3-(8-fluoro-6-methylimidazo[1,2-a]pyridin-2-yl)-7-(piperazin-1-yl)-2H-chromen-2-one]	< 0.1	** (fold increase between >1.2 and ≤1.35)			
220 to 221	Cc1cn2cc(-c3cc4ccc(N5CCN(C)[C@H](C)C5)cc4oc3=O)nc2c(C)n1 [Compound 606, 3-(6,8-dimethylimidazo[1,2-a]pyrazin-2-yl)-7-[(3R)-3,4-dimethylpiperazin-1-yl]-2H-chromen-2-one]	< 0.1	***** (fold increase >1.65)	< 300		
260 to 270	CN1CCN(c2ccc3cc(-c4nc(C(F)(F)F)cs4)c(=O)oc3c2)CC1.O=C(O)C(F)(F)F [Compound 53, 7-(4-methylpiperazin-1-yl)-3-[4-(trifluoromethyl)-1,3-thiazol-2-yl]-2H-chromen-2-one trifluoroacetate]	3 to 30	** (fold increase between >1.2 and ≤1.35)			
220 to 222	CCCN1CCN(c2ccc3cc(-c4cn5cc(C)ccc5n4)c(=O)oc3c2)CC1 [Compound 207, 3-(6-methylimidazo[1,2-a]pyridin-2-yl)-7-(4-propylpiperazin-1-yl)-2H-chromen-2-one]	1 to 3	** (fold increase between >1.2 and ≤1.35)			
130 to 133	CCN1CCCN(c2ccc3cc(-c4cc5cnc(C)cn5c4)c(=O)oc3c2)CC1 [Compound 667, 7-(4-ethyl-1,4-diazepan-1-yl)-3-(3-methylpyrrolo[1,2-a]pyrazin-7-yl)-2H-chromen-2-one]	< 0.1	**** (fold increase between >1.5 and ≤1.65)	< 300		
251 to 259	COc1ccn2cc(-c3cc4ccc(N5CCN(C)CC5)cc4oc3=O)nc2c1 [Compound 435, 3-(7-methoxyimidazo[1,2-a]pyridin-2-yl)-7-(4-methylpiperazin-1-yl)-2H-chromen-2-one]	1 to 3	* (maximum fold increase of ≤1.2)			
217 to 220	Cc1cn2cc(-c3cc4ccc(N5CCN(C6CCC6)CC5)cc4oc3=O)cc2c(C)n1 [Compound 814, 7-(4-cyclobutylpiperazin-1-yl)-3-(1,3-dimethylpyrrolo[1,2-a]pyrazin-7-yl)-2H-chromen-2-one]	< 0.1	***** (fold increase >1.65)	< 300		
252 to 260	C[C@H]1CN(c2ccc3cc(-c4cn5ccc(C(F)(F)F)cc5n4)c(=O)oc3c2)CCN1 [Compound 268, 7-[(3S)-3-methylpiperazin-1-yl]-3-[7-(trifluoromethyl)imidazo[1,2-a]pyridin-2-yl]-2H-chromen-2-one]	0.3 to 1	* (maximum fold increase of ≤1.2)			
